In ChEMBL document CHEMBL1201862, “PubChem BioAssay data set” (2004):
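Values below derive from 48-hour exposures of cells grown in 96-well plates, with endpoints linearly interpolated between the two concentrations bracketing the appropriate inhibition level. At the GI50, growth is halved.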 Calls of active or inactive are those of the source. Rule as the data show it: active = GI50 up to about 1.1 µM and inactive = higher.

How the values were obtained:
Assay in all cases: NCI anticancer screen, dose series, 48 h
ACHN = tested on: ACHN
KM12 = tested on: KM12
NCI-H522 = tested on: NCI-H522
HL-60 = tested on: HL-60
HT-29 = tested on: HT-29
HCC 2998 = tested on: HCC 2998
RXF 393 = tested on: RXF 393
UACC-257 = tested on: UACC-257
SF-539 = tested on: SF-539
SF-268 = tested on: SF-268
SW-620 = tested on: SW-620
HCT-15 = tested on: HCT-15
SK-MEL-28 = tested on: SK-MEL-28
DMS-273 = tested on: DMS-273
EKVX = tested on: EKVX
786-0 = tested on: 786-0
SN12C = tested on: SN12C
MDA-MB-231 = tested on: MDA-MB-231
A498 = tested on: A498
UO-31 = tested on: UO-31

Structure (SMILES)	GI50 (ACHN)	GI50 (KM12)	GI50 (NCI-H522)	GI50 (HL-60)	GI50 (HT-29)	GI50 (HCC 2998)	GI50 (RXF 393)	GI50 (UACC-257)	GI50 (SF-539)	GI50 (SF-268)	GI50 (SW-620)	GI50 (HCT-15) [µM]	GI50 (SK-MEL-28)	GI50 (DMS-273)	GI50 (EKVX)	GI50 (786-0)	GI50 (SN12C)	GI50 (MDA-MB-231)	GI50 (A498)	GI50 (UO-31)
COc1ccc(Cc2cc(OC)c(OC)c(OC)c2)cc1	0.771 µM (active)	0.144 µM (active)	0.19 µM (active)	0.0586 µM (active)	0.124 µM (active)	0.226 µM (active)	0.168 µM (active)	0.509 µM (active)	0.224 µM (active)	1.27 µM (inactive)	0.109 µM (active)	0.114	0.479 µM (active)	0.104 µM (active)	1.14 µM (inactive)	0.429 µM (active)	0.671 µM (active)	0.711 µM (active)	0.27 µM (active)	0.766 µM (active)
CN(C)CC1CC/C(=C\c2ccc(O)cc2)C1=O (stereo not drawn)	3.51 µM (inactive)	4.18 µM (inactive)	1.47 µM (inactive)	0.631 µM (active)	3.04 µM (inactive)	10.7 µM (inactive)	2.07 µM (inactive)	3.94 µM (inactive)	7.8 µM (inactive)	9.62 µM (inactive)	2.33 µM (inactive)	2.21	2.48 µM (inactive)	3.3 µM (inactive)	4.83 µM (inactive)	2.16 µM (inactive)	5.64 µM (inactive)	4.14 µM (inactive)	9.35 µM (inactive)	12.9 µM (inactive)
O=C1C=C(Br)C(=O)C12CCc1ccccc12 (stereo not drawn)	11.5 µM (inactive)	21.1 µM (inactive)	3.36 µM (inactive)	2.69 µM (inactive)	14.8 µM (inactive)	22.3 µM (inactive)	9.14 µM (inactive)	19.4 µM (inactive)	17.4 µM (inactive)	22.3 µM (inactive)	4.4 µM (inactive)	7.53	12.2 µM (inactive)	18.3 µM (inactive)	25.4 µM (inactive)	11.9 µM (inactive)	17.3 µM (inactive)	28.4 µM (inactive)	4.61 µM (inactive)	18.5 µM (inactive)
CN(CO)c1nc(N(C)CO)nc(N(C)CO)n1 [TRIMELAMOL]	27.5 µM (inactive)	15.1 µM (inactive)	20.9 µM (inactive)	4.75 µM (inactive)	23 µM (inactive)		11.6 µM (inactive)				3.51 µM (inactive)	9.89	13.6 µM (inactive)	7.6 µM (inactive)	19.7 µM (inactive)	24.2 µM (inactive)		21.5 µM (inactive)	23.7 µM (inactive)	19 µM (inactive)
O=C(c1ccc([N+](=O)[O-])cc1[N+](=O)[O-])N(/N=C/C=C/c1ccccc1)c1nnc(-c2ccccc2)c(-c2ccccc2)n1	24.3 µM (inactive)	34.8 µM (inactive)	22 µM (inactive)	21.6 µM (inactive)	46 µM (inactive)	31.6 µM (inactive)	22.8 µM (inactive)	31.5 µM (inactive)	15.2 µM (inactive)	40.7 µM (inactive)	44.4 µM (inactive)	29	27.3 µM (inactive)	23.7 µM (inactive)	36.4 µM (inactive)	21 µM (inactive)	63.7 µM (inactive)		30.5 µM (inactive)	18.5 µM (inactive)
COc1cccc2c1C1(O)C2CCCCCCCCCC12OCCCO2 (stereo not drawn)	> 35.2 µM (inactive)	> 38 µM (inactive)	> 50.2 µM (inactive)	5.66 µM (inactive)	10.8 µM (inactive)	> 34.2 µM (inactive)	> 100 µM (inactive)	> 69.2 µM (inactive)	8.38 µM (inactive)	9.82 µM (inactive)	> 46.7 µM (inactive)	4.93	> 100 µM (inactive)	> 100 µM (inactive)		32.7 µM (inactive)	> 49.7 µM (inactive)	33 µM (inactive)	> 58.2 µM (inactive)	> 43.3 µM (inactive)
C/C(=N\N=C(/S)N(C)C)c1cccc[n+]1[O-]	38.2 µM (inactive)	45.5 µM (inactive)	4.05 µM (inactive)	1.03 µM (active)	3.05 µM (inactive)	19.9 µM (inactive)	65.3 µM (inactive)	4.38 µM (inactive)	47.4 µM (inactive)	38.2 µM (inactive)	22.3 µM (inactive)	1.45	73.5 µM (inactive)	12.5 µM (inactive)	25.9 µM (inactive)	28.6 µM (inactive)	79.1 µM (inactive)	2.99 µM (inactive)	> 100 µM (inactive)	23.2 µM (inactive)
